In ChEMBL document CHEMBL5653633, “G1 cell cycle arrest and apoptosis are induced in NIH 3T3 cells by KN-93, an inhibitor of CaMK-II (the multifunctional Ca2+/CaM kinase)” (Cell Growth Differ, 1995) one finds Activity, inhibition and IC50 data, which are given here for 2 compounds.

Structures are written as SMILES. Calls of active or inactive are those of the source. No cut-off for these calls is given here.

Data set [1] concerns NIH3T3. Put plainly: Induction of cell cycle arrest in mouse NIH3T3 cells by propidium iodide staining based flow cytometry analysis. It is filed as toxicity. In general terms: A flow cytometer gives signals particle by particle.
In data set [2] the test system is NIH3T3. Put plainly: Inhibition of CAMK-II in mouse NIH3T3 cells assessed as decrease in cell number by MTT assay. It is filed as cell-based. Background: Tetrazolium assays rely on reduction of a dye to a coloured formazan, in cell work by metabolically active cells.
The subject of data set [3] is NIH3T3. The data set can be described thus: (§1) Inhibition of CAMK-II in mouse NIH3T3 cells using autocamtide-2 as substrate […]. It is filed as cell-based.
Data set [4] has as its system NIH3T3. The data set can be described thus: Cytotoxicity against serum stimulated mouse NIH3T3 cells assessed as decrease in cell number at 2 uM incubated for 72 hrs by MTT assay relative to control. It is filed as functional. Also noted: scale not given: the % may be the effect or the level left.
Data set [5] concerns NIH3T3. Put plainly: Cytotoxicity against FGF stimulated mouse NIH3T3 cells assessed as decrease in cell number at 2 uM incubated for 72 hrs by MTT assay relative to control. It is filed as functional. Also noted: scale not given: the % may be the effect or the level left.
Data set [6] deals with NIH3T3. Put plainly: Cytotoxicity against EGF stimulated mouse NIH3T3 cells assessed as growth inhibition at 5 to 25 uM incubated for 72 hrs by MTT assay. It is filed as functional, cell-based. The note with it: dose 5-25 µM.
The subject of data set [7] is NIH3T3. Put plainly: Induction of cell cycle arrest in mouse NIH3T3 cells assessed as accumulation of cells at G1 phase at 24 uM incubated for 3 days by propidium iodide staining based flow cytometry analysis. The note with it: nih3t3, 72 h, time 3 day. It is filed as toxicity.
For data set [8], the system named is NIH3T3. Put plainly: Inhibition of CAMK-II in mouse NIH3T3 cells assessed as morphological changes at 10 to 24 uM incubated for 1 day in presence of fetal bovine serum by phase contrast microscopy analysis. It is filed as cell-based. The note with it: dose 10-24 µM.
In data set [9] the test system is NIH3T3. The data set can be described thus: Induction of cell cycle arrest in mouse NIH3T3 cells assessed as accumulation of cells at G2/M phase at 10 uM incubated for 44 hrs followed by compound washout for 22 hrs by propidium iodide staining based flow cytometry analysis. To be noted: nih3t3, 44 h. It is filed as toxicity.
Data set [10] relates to NIH3T3. Put plainly: Inhibition of CAMK-II in mouse NIH3T3 cells assessed as accumulation of granules in presence of fetal bovine serum by phase contrast microscopy analysis. It is filed as cell-based.
The subject of data set [11] is NIH3T3. Put plainly: Inhibition of CAMK-II in mouse NIH3T3 cells assessed as cell growth rate after compound rinsing at 4 to 16 uM incubated for 6 to 48 hrs by MTT assay. It is filed as cell-based. To be noted: dose 4-16 µM, time 6-48 hrs.
The test system of data set [12] is NIH3T3. The data set can be described thus: Induction of cell cycle arrest in mouse NIH3T3 cells assessed as accumulation of hypodiploid cells at 24 uM incubated for 3 days by propidium iodide staining based flow cytometry analysis. To be noted: nih3t3, 72 h, time 3 day. It is filed as toxicity.
Data set [13] deals with NIH3T3. Put plainly: Induction of cell cycle arrest in mouse NIH3T3 cells assessed as decreased accumulation of cells at S phase at 10 uM incubated for 1 to 3 days by propidium iodide staining based flow cytometry analysis. It is filed as toxicity. The note with it: nih3t3, 10 µM, time 1-3 day.
Data set [14] has as its system NIH3T3. Put plainly: Cytotoxicity against PDGF-BB stimulated mouse NIH3T3 cells assessed as growth inhibition incubated for 72 hrs by MTT assay. It is filed as functional, cell-based. The note with it: NIH3T3, 72 h.
Data set [15] relates to NIH3T3. Put plainly: Cytotoxicity against FGF stimulated mouse NIH3T3 cells assessed as growth inhibition incubated for 72 hrs by MTT assay. It is filed as functional, cell-based. To be noted: NIH3T3, 72 h.
The subject of data set [16] is NIH3T3. Put plainly: Induction of apoptosis in mouse NIH3T3 cells assessed as decreased cell viability in presence of terminal transferase and Fl-dUTP by TUNEL staining based fluorescence microscopy analysis. It is filed as toxicity. To be noted: dose lower 10 µM, time lower 2 day, dose upper 24 µM, time upper 3 day.
Data set [17] has as its system NIH3T3. Put plainly: Inhibition of CAMK-II in mouse NIH3T3 cells assessed as inhibition of cell growth at 4 to 8 uM incubated for 3 days by MTT assay. The note with it: dose 4-8 µM, time 3.0 day. It is filed as cell-based.
Data set [18] is described as follows: Inhibition of CAMK-II in mouse NIH3T3 cells assessed as growth inhibition incubated for 2 to 3 days by phase contrast microscopy analysis. It is filed as cell-based.
The subject of data set [19] is NIH3T3. Put plainly: Cytotoxicity against EGF stimulated mouse NIH3T3 cells assessed as growth inhibition incubated for 72 hrs by MTT assay. It is filed as functional, cell-based. The note with it: NIH3T3, 72 h.
For data set [20], the system named is NIH3T3. The data set can be described thus: Inhibition of CAMK-II in mouse NIH3T3 cells assessed as decrease in cell number at 16 to 24 uM incubated for 3 days by MTT assay. It is filed as cell-based. The note with it: dose 16-24 µM, time 3.0 day.
Data set [21] deals with NIH3T3. The data set can be described thus: Induction of cell cycle arrest in mouse NIH3T3 cells assessed as accumulation of cells at G1 phase at 10 uM incubated for 1 day by propidium iodide staining based flow cytometry analysis (reference value: 54 %). It is filed as toxicity. To be noted: nih3t3, 24 h.
In data set [22] the test system is NIH3T3. The data set can be described thus: Induction of cell cycle arrest in mouse NIH3T3 cells assessed as decreased accumulation of cells at G2 phase at 10 uM incubated for 1 to 3 days by propidium iodide staining based flow cytometry analysis. It is filed as toxicity. The note with it: nih3t3, 10 µM, time 1-3 day.
Data set [23] relates to NIH3T3. Put plainly: Cytotoxicity against serum stimulated mouse NIH3T3 cells assessed as inhibition of cell growth incubated for 72 hrs by MTT assay. It is filed as functional, cell-based. The note with it: NIH3T3, 72 h.
Data set [24] concerns NIH3T3. Put plainly: Cytotoxicity against IGF-1 stimulated mouse NIH3T3 cells assessed as growth inhibition at 5 to 25 uM incubated for 72 hrs by MTT assay. It is filed as functional, cell-based. The note with it: dose 5-25 µM.
A short description of data set [25]: as §1. It is filed as cell-based.
Data set [26] concerns NIH3T3. The data set can be described thus: Induction of cell cycle arrest in mouse NIH3T3 cells assessed as accumulation of cells at S phase at 10 uM incubated for 44 hrs followed by compound washout for 22 hrs by propidium iodide staining based flow cytometry analysis. It is filed as toxicity. The note with it: nih3t3, 44 h.
Data set [27] relates to NIH3T3. Put plainly: Cytotoxicity against PDGF-BB stimulated mouse NIH3T3 cells assessed as growth inhibition at 5 to 25 uM incubated for 72 hrs by MTT assay. It is filed as functional, cell-based. The note with it: dose 5-25 µM.
Data set [28] relates to NIH3T3. Put plainly: Induction of cell cycle arrest in mouse NIH3T3 cells assessed as accumulation of cells at G1 phase at 10 uM incubated for 2 to 3 day by propidium iodide staining based flow cytometry analysis (reference value: 54 %). It is filed as toxicity. The note with it: nih3t3, 10 µM, time 2-3 day.
Data set [29] deals with NIH3T3. Put plainly: Cytotoxicity against IGF-1 stimulated mouse NIH3T3 cells assessed as growth inhibition incubated for 72 hrs by MTT assay. It is filed as functional, cell-based. The note with it: NIH3T3, 72 h.
Data set [30] relates to NIH3T3. Put plainly: Cytotoxicity against FGF stimulated mouse NIH3T3 cells assessed as growth inhibition at 5 to 25 uM incubated for 72 hrs by MTT assay. It is filed as functional, cell-based. To be noted: dose 5-25 µM.
In data set [31] the test system is NIH3T3. The data set can be described thus: Inhibition of CAMK-II in mouse NIH3T3 cells assessed as decrease in cell count at 24 uM incubated for 2 to 3 days in presence of fetal bovine serum by phase contrast microscopy analysis. It is filed as cell-based. The note with it: time 2-3 day.

Turning to `COc1ccc(S(=O)(=O)Nc2ccccc2CN(C)C/C=C/c2ccc(Cl)cc2)cc1`, the Activity entry with NIH3T3 [1] is on record as “Not Active”. The inhibition entry in the data set with NIH3T3 [2] and with NIH3T3 [3] was “inactive” each time.

On to `COc1ccc(S(=O)(=O)N(CCO)c2ccccc2CN(C)C/C=C/c2ccc(Cl)cc2)cc1`, for which the Activity in the data set on NIH3T3 [4] is 4%; with NIH3T3 [5] it was 35%; with NIH3T3 [7] it was “Toxic”; with NIH3T3 [9], “Non-Toxic”; with NIH3T3 [12], “Toxic”; in the data set on NIH3T3 [13], “Toxic”. In addition, the Activity result in the data set with NIH3T3 [16] was “Dose-Dependent Effect and Tde”; in the data set on NIH3T3 [21], 79%; with NIH3T3 [22], “Toxic”; with NIH3T3 [26], “Non-Toxic”; in the data set on NIH3T3 [28], 95%. Besides, the outcome in the data set on NIH3T3 [6], in the data set with NIH3T3 [24], in the data set with NIH3T3 [27] and with NIH3T3 [30] was Active. The inhibition entry in the data set on NIH3T3 [8], with NIH3T3 [10], with NIH3T3 [2], in the data set on NIH3T3 [17], in the data set with NIH3T3 [20] and with NIH3T3 [31] was “Active” in each case. Further, the inhibition result in the data set on NIH3T3 [11] is “inactive”. The IC50 in the data set with NIH3T3 [14] stood at 6 µM; with NIH3T3 [15], 6 µM; in data set [18] it was 1 µM; with NIH3T3 [19] it was 6 µM; in the data set with NIH3T3 [23], 12 µM; in data set [25] it was 12 µM. For the same compound, the IC50 in the data set on NIH3T3 [29] worked out at 6 µM.

In general, IC50 refers to the concentration at which inhibition is half-maximal.
